# Structures can show the parent of a compound that is named as a salt.
# Tests used:
# [1] = system: intestinal microbial communities; assay: EL-PAT: 16S rRNA V4 sequencing of fecal, ileal and cecal microbiota; assay type: in vivo, C57BL/6 mice
# Procedure: For the experiments, dams and their litters were divided into control and antibiotic groups. In the EL-PAT study dams in the antibiotic groups received Tylosin tartrate (Sigma Aldrich, St. Louis Mo.) dissolved in distilled deionized water (neutral pH) at a concentration of 0.33 mg/ml, and dams in the control group received non-acidified water. Mice in the PAT3 group received two additional doses of antibiotics at day 27 and 36 of life for 3 days. In some experiments, C57BL/6 mice were exposed to one, PAT1, (n=17, M=9, F=8) or three, PAT3, (n=19, M=10, F=9) doses of the macrolide Tylosin in non-acidified water or non-acidified water alone (control, n=12, M=9, F=3), early-in-life, to mirror pediatric antibiotic exposures. For the first antibiotic pulse […] of Tylosin tartrate (Sigma) was dissolved in 250 ml of non-acidified water and given to PAT1 and PAT3 lactating dams at pup day 5 of life for 5 days. For the second and third pulse, pups received the antibiotic directly at day 27 and day 36 of life respectively, for three days. Mice were sacrificed at 7 weeks of age and fecal, ileal and cecal contents were collected. Throughout the experiment mouse weight and fecal contents were collected. Fecal, ileal and cecal DNA were extracted using Mobio 96-well extraction kit (MO BIO Laboratories, Inc., CA). For amplicon library generation, the V4 region of 16s rRNA gene was amplified with gene specific primers (SEQ ID NOS: 39-43). Amplicons were prepared in triplicate, pooled and quantified. The 254 bp V4 region was sequenced using the Illumina MiSeq 2×150 bp platform (Illumina Inc., CA). Forward and reverse reads were joined using the ea-utils module fastq-join. Demultiplexing and operational taxonomic unit (OTU) picking were performed using the bioinformatic tool Qiime, while pair-end reads were demultiplexed with the script split_libraries_fastq.py. Reads were quality filtered at a phred score of 20 using -q flag, and the flag --rev_comp_mapping allowed reading of the reverse complement barcode before demultiplexing. Open referenced OTU picking was performed using pick_open_reference_otus.py script to assign a taxonomy for each OTU representative sequence and build a phylogenetic tree, and an OTU table. For alpha and beta diversity, samples were rarified at a sequencing depth of 1000.
# terminal ileum = assay: NOD: ileal gene expression profiling by microarray; assay type: in vivo, NOD mice; conditions: for differentially regulated genes that were down: PAT vs Control
# Procedure: Ileal gene expression profiling of 6-week control, STAT, and PAT animal groups, was performed using the Affymetrix Genechip system (Affymetrix, Santa Clara Calif.). Total RNA quality and quantity were determined using the Nanodrop ND-1000, agarose gel, and Agilent 2100 Bioanalyser. Total RNA (100 ng) was used to prepare cDNA following the Affymetrix 3′IVT Express Kit labeling protocol (Affymetrix). Standardized array processing procedures recommended by Affymetrix were performed, including hybridization, fluidics processing and scanning of the Affymetrix Mouse Genome 430 2.0 Array chips. The affy package in R was used to normalize the raw data (Affymetrix CEL files) by Robust Multichip Average (RMA) algorithm. Then the limma package was used to identify regulated genes between groups and generate lists of differentially expressed genes using linear models and empirical Bayes method with an FDR-adjusted p-value cut-off of p<0.05 (Smyth, 2004, Statistical Applications in Genetics and Molecular Biology 3, No. 1, Article 3).
# RNA was extracted from the terminal ileum of the 6-week old NOD mice. Raw probe intensities were normalized by the Robust Multichip Average (RMA) algorithm using affy package in R and then the limma package was used to identify regulated genes using linear models and empirical Bayes method with an FDR-adjusted p-value cut off of p<0.05 (Smyth 2004, Statistical Applications in Genetics and Molecular Biology 3, No. 1, Article 3.).
# [2] = PAT3 group, two additional doses
# [3] = at sacrifice, six-weeks (PAT1) and one-week (PAT3) after last pulse
# [4] = one therapeutic dose, dams and offspring
# [5] = terminal ileum, NOD male mice, microarray
# [6] = terminal ileum, NOD male mice, microarray, probe with greatest fold change
compound,measurement,setting,value
"CC[C@H]1OC(=O)C[C@@H](O)[C@H](C)[C@@H](O[C@@H]2O[C@H](C)[C@@H](O[C@H]3C[C@@](C)(O)[C@@H](O)[C@H](C)O3)[C@H](N(C)C)[C@H]2O)[C@@H](CC=O)C[C@@H](C)C(=O)/C=C/C(C)=C/[C@@H]1CO[C@@H]1O[C@H](C)[C@@H](O)[C@@H](OC)[C@H]1OC [Tylosin, Tylosin tartrate]",relative abundance of Blautia producta,[1]; [2],blooms
same,relative abundance of family Enterobacteriaceae,[1]; [2],blooms
same,ileal evenness,[1]; [3],decreases
same,ileal richness,[1]; [3],decreases
same,"abundance of Bifidobacterium (ileal, LEfSe)",[1]; early-life PAT,decreases
same,"abundance of S24-7 (ileal, LEfSe)",[1]; early-life PAT,decreases
same,"abundance of SFB (ileal, LEfSe)",[1]; early-life PAT,decreases
same,"relative abundance of Akkermansia muciniphila (ileal, LEfSe)",[1]; early-life PAT,increases
same,"ileal microbial communities (PCoA, Jenson-Shannon divergence)","[1]; male and female, independent of sex",significantly different from Control
same,"fecal, cecal and ileal microbial diversity (phylogenetic diversity)","[1]; male pups over time, one or three pulses vs Control",decreases
same,"intestinal microbial populations (PCoA, weighted Unifrac)","[1]; one and three therapeutic doses early in life, males and females",significantly alters
same,Segemented Filamentous Bacteria,[1]; [4],loss
same,relative abundance of Bacteroides uniformis,[1]; [4],blooms
same,relative abundance of Akkermansia muciniphila,"[1]; one therapeutic dose, dams and offspring, fecal, ileal and cecal samples",blooms
same,differentially regulated genes that were down,terminal ileum; NOD females,42.1%
same,differentially regulated genes that were down,terminal ileum; NOD males,69.3%
same,"log2 fold change (PAT/control), Arl5b",terminal ileum; [5],2.42
same,"log2 fold change (PAT/control), Bhmt",terminal ileum; [5],−1.52
same,"log2 fold change (PAT/control), Ccl20",terminal ileum; [5],−0.86
same,"log2 fold change (PAT/control), Clec2d",terminal ileum; [5],−0.65
same,"log2 fold change (PAT/control), Dio1",terminal ileum; [5],−1.34
same,"log2 fold change (PAT/control), Dusp14",terminal ileum; [5],2.22
same,"log2 fold change (PAT/control), Edn2",terminal ileum; [5],−1.67
same,"log2 fold change (PAT/control), Ereg",terminal ileum; [5],1.73
same,"log2 fold change (PAT/control), G6pc",terminal ileum; [5],−2.85
same,"log2 fold change (PAT/control), Gjb3",terminal ileum; [5],0.77
same,"log2 fold change (PAT/control), Gzma",terminal ileum; [5],−1.48
same,"log2 fold change (PAT/control), Il1rn",terminal ileum; [5],1.70
same,"log2 fold change (PAT/control), Il17rd",terminal ileum; [5],−0.58
same,"log2 fold change (PAT/control), Irf1",terminal ileum; [5],−1.14
same,"log2 fold change (PAT/control), Maff",terminal ileum; [5],2.22
same,"log2 fold change (PAT/control), Phlda1",terminal ileum; [5],1.96
same,"log2 fold change (PAT/control), S100a14",terminal ileum; [5],1.00
same,"log2 fold change (PAT/control), Saa1",terminal ileum; [5],−4.00
same,"log2 fold change (PAT/control), Saa2",terminal ileum; [5],−1.44
same,"log2 fold change (PAT/control), Tifa",terminal ileum; [5],−1.32
same,"log2 fold change (PAT/control), Tppp",terminal ileum; [5],−1.35
same,"log2 fold change (PAT/control), Acsl3",terminal ileum; [6],1.59
same,"log2 fold change (PAT/control), Ccl28",terminal ileum; [6],−0.64
same,"log2 fold change (PAT/control), Cd38",terminal ileum; [6],−1.02
same,"log2 fold change (PAT/control), Chka",terminal ileum; [6],1.97
same,"log2 fold change (PAT/control), Flrt3",terminal ileum; [6],2.56
same,"log2 fold change (PAT/control), Il1rl1",terminal ileum; [6],1.64
same,"log2 fold change (PAT/control), Klf4",terminal ileum; [6],0.86
same,"log2 fold change (PAT/control), Slc2a1",terminal ileum; [6],1.26
same,"log2 fold change (PAT/control), Socs2",terminal ileum; [6],−0.77
same,"log2 fold change (PAT/control), Tnfrsf12a",terminal ileum; [6],1.72
same,"log2 fold change (PAT/control), Tnfsf10",terminal ileum; [6],−1.46
same,"log2 fold change (PAT/control), Zfand2a",terminal ileum; [6],2.11
same,"log2 fold change (PAT/control), Rab30","terminal ileum; terminal ileum, PAT-treated NOD male mice, 6-week, microarray",4.27
same,"log2 fold change (PAT/control), Areg","terminal ileum; terminal ileum, PAT-treated NOD male mice, microarray",3.94
